Test results reported in patent US20240287138A1, “CYCLIC PEPTIDES FOR INHIBITING TNF RECEPTOR 1 ACTIVITY” (Merck Sharp & Dohme LLC, priority 2023, published 2024).
Read-outs that look alike come from different tables or passages of the source. Numbered stars: 1 amine (or outer) side, 2 acyl side, 3 side chain; on linkers, the order of the positions; unused ones are H or OH. Bridge positions count the residues as written; N and C are the ends. Square brackets hold non-standard residues; d marks the D form. Peptide text beside a SMILES is read from it. Trp(βS-Me,7-OMe) = COc1cccc2c([C@H](C)[C@H](N)C(=O)O)c[nH]c12; Phe(4-SO2NH2) = N[C@@H](Cc1ccc(S(N)(=O)=O)cc1)C(=O)O; Phe(2-F,4-COOH) = N[C@@H](Cc1ccc(C(=O)O)cc1F)C(=O)O; Trp(7-CN) = N#Cc1cccc2c(C[C@H](N)C(=O)O)c[nH]c12; Trp(7-Cl) = N[C@@H](Cc1c[nH]c2c(Cl)cccc12)C(=O)O; Ala(pyrimidin-5-yl) = N[C@@H](Cc1cncnc1)C(=O)O; Phe(3-CONH2) = NC(=O)c1cccc(C[C@H](N)C(=O)O)c1; Phe(4-CONH2) = NC(=O)c1ccc(C[C@H](N)C(=O)O)cc1; Phe(4-COOH) = N[C@@H](Cc1ccc(C(=O)O)cc1)C(=O)O; 4Pal(3S-Me) = C[C@@H](c1ccncc1)[C@H](N)C(=O)O; Trp(7-aza) = N[C@@H](Cc1c[nH]c2ncccc12)C(=O)O; Pip(5R-OH) = O=C(O)[C@@H]1CC[C@@H](O)CN1; αMeW = C[C@](N)(Cc1c[nH]c2ccccc12)C(=O)O; X1 = O=C([C@@H]1CC[C@H](N[*:1])C1)[*:2]; 4Pal = N[C@@H](Cc1ccncc1)C(=O)O; Abu(4-CN) = N#CCC[C@H](N)C(=O)O; Gly(cBu) = N[C@H](C(=O)O)C1CCC1; NMeE = CN[C@@H](CCC(=O)O)C(=O)O; dHyp = O=C(O)[C@H]1C[C@H](O)CN1; Cit = NC(=O)NCCC[C@H](N)C(=O)O; Ahp(2) = CCCCC[C@H](N)C(=O)O; hSer = N[C@@H](CCO)C(=O)O; αMeS = C[C@](N)(CO)C(=O)O; Nle = CCCC[C@H](N)C(=O)O; Sar = CNCC(=O)O

Experiments:
[1] = target: T1, human TNFR2 ECD protein (Homo sapiens, UniProt P20333); assay: SPR off-target binding (selectivity) to human TNFR2 ECD
T1 construct: HRV 3C protease cleavage site (C); 6His (C, cleaved yes); made in house; host or cells: Sf21 insect cells (baculovirus), secreted
T1 sequence (P20333 23-257): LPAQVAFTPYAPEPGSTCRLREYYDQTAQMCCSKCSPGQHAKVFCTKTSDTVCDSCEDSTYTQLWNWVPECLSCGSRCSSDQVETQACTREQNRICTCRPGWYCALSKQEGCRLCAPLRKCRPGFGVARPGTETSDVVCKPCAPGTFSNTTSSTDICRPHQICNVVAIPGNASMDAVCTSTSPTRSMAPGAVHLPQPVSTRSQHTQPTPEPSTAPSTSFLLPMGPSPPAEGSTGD
Method in brief: (§1)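 Biotinylated human TNFR1 or TNFR2 ECD (C-terminal Avi-tag, Sf21-expressed) captured on a regenerable streptavidin chip; peptide analytes flowed in 10 mM HEPES pH 7.4, 150 mM NaCl, 3 mM EDTA, 0.05% P20, 2% DMSO. kon and koff measured; affinity calculated from the rate constants.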

[2] = target: T2, human TNFR1 extracellular domain (ECD) protein (Homo sapiens, UniProt P19438); assay: SPR binding affinity to captured human TNFR1 ECD
T2 construct: HRV 3C protease cleavage site (C); 6His (C, cleaved yes); made in house; host or cells: Sf21 insect cells (baculovirus), secreted
T2 sequence (P19438 30-211): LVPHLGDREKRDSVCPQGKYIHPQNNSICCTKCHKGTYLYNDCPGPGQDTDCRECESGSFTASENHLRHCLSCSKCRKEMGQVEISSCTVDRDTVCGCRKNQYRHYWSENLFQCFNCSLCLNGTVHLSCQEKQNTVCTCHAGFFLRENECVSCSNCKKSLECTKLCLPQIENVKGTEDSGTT
Method in brief: as §1

Structure (SMILES)	Kd [1]	Kd [2]	Kd ([1]; biotinylated human TNFR2 ECD on streptavidin chip, read-out: SPR hTNFR2 KD)	Kd ([2]; biotinylated human TNFR1 ECD on streptavidin chip, from kon and koff, read-out: SPR hTNFR1 KD)
CCCCC[C@@H]1NC(=O)[C@@H]2CC[C@@H](C2)NC(=O)[C@H]([C@@H](C)c2c[nH]c3c(OC)cccc23)NC(=O)CN(C)C(=O)[C@H](Cc2ccc(C(N)=O)cc2)NC(=O)[C@H](Cc2ccc(C(N)=O)cc2)NC(=O)[C@](C)(CO)NC(=O)[C@H](Cc2c[nH]c3c(C#N)cccc23)NC(=O)[C@H](Cc2ccc(C(=O)O)cc2)NC(=O)[C@H](CC(N)=O)NC(=O)[C@H]2C[C@H](O)CN2C(=O)[C@H](Cc2c[nH]c3ccccc23)NC(=O)[C@H](CCC#N)NC(=O)[C@H]([C@@H](C)c2ccncc2)NC1=O [SEQ ID NO. 79] (cyclo([Ahp(2)][4Pal(3S-Me)][Abu(4-CN)]W[dHyp]N[Phe(4-COOH)][Trp(7-CN)][αMeS][Phe(4-CONH2)][Phe(4-CONH2)][Sar][Trp(βS-Me,7-OMe)][X1]))	> 1000 nM	0.05 nM		
COc1cccc2c([C@H](C)[C@@H]3NC(=O)CN(C)C(=O)[C@H](Cc4cccc(C(N)=O)c4)NC(=O)[C@H](Cc4ccc(C(=O)O)cc4)NC(=O)[C@](C)(CO)NC(=O)[C@H](Cc4c[nH]c5c(Cl)cccc45)NC(=O)[C@H](Cc4ccncc4)NC(=O)[C@H](CC(N)=O)NC(=O)[C@H]4C[C@H](O)CN4C(=O)[C@H](Cc4c[nH]c5ccccc45)NC(=O)[C@@H]4CC[C@@H](O)CN4C(=O)[C@H](Cc4ccncc4)NC(=O)[C@H](CCCNC(N)=O)NC(=O)[C@@H]4CC[C@@H](C4)NC3=O)c[nH]c12 [SEQ ID NO. 54] (cyclo([4Pal][Trp(7-Cl)][αMeS][Phe(4-COOH)][Phe(3-CONH2)][Sar][Trp(βS-Me,7-OMe)][X1][Cit][4Pal][Pip(5R-OH)]W[dHyp]N))	> 1000 nM	0.07 nM		
CCCC[C@@H]1NC(=O)[C@@H]2CC[C@@H](C2)NC(=O)[C@H]([C@@H](C)c2c[nH]c3c(OC)cccc23)NC(=O)CN(C)C(=O)[C@H](Cc2ccc(C(=O)O)cc2F)NC(=O)[C@H](Cc2ccc(S(N)(=O)=O)cc2)NC(=O)[C@](C)(CO)NC(=O)[C@H](Cc2c[nH]c3c(C#N)cccc23)NC(=O)[C@H](Cc2ccc(C(=O)O)cc2F)NC(=O)[C@H](CC(N)=O)NC(=O)[C@H]2C[C@H](O)CN2C(=O)[C@H](Cc2c[nH]c3ncccc23)NC(=O)[C@@H]2CC[C@@H](O)CN2C(=O)[C@H](Cc2cncnc2)NC1=O [SEQ ID NO. 51] (cyclo(N[Phe(2-F,4-COOH)][Trp(7-CN)][αMeS][Phe(4-SO2NH2)][Phe(2-F,4-COOH)][Sar][Trp(βS-Me,7-OMe)][X1][Nle][Ala(pyrimidin-5-yl)][Pip(5R-OH)][Trp(7-aza)][dHyp]))			> 1000 nM	0.08 nM
CCCC[C@@H]1NC(=O)CSC[C@@H](C(N)=O)NC(=O)[C@](C)(Cc2c[nH]c3ccccc23)NC(=O)CN(C)C(=O)[C@H](Cc2ccc(O)cc2)NC(=O)[C@H](Cc2ccc(C(=O)O)cc2)NC(=O)[C@](C)(CO)NC(=O)[C@H](Cc2c[nH]c3c(Cl)cccc23)NC(=O)[C@H](Cc2ccncc2)NC(=O)[C@H](CC(N)=O)NC(=O)[C@H](CCC(=O)O)N(C)C(=O)[C@H](Cc2c[nH]c3ncccc23)NC(=O)[C@H](C2CCC2)NC(=O)[C@H](Cc2ccncc2)NC1=O [SEQ ID NO. 56] ({CH2CO}-[Nle][4Pal][Gly(cBu)][Trp(7-aza)][NMeE]N[4Pal][Trp(7-Cl)][αMeS][Phe(4-COOH)]Y[Sar][αMeW]C-NH2; thioether N-14)	> 1000 nM	27.2 nM		
CCCCC[C@@H]1NC(=O)[C@@H]2CC[C@@H](C2)NC(=O)[C@H]([C@@H](C)c2c[nH]c3c(OC)cccc23)NC(=O)CN(C)C(=O)[C@H](Cc2ccc(C(N)=O)cc2)NC(=O)[C@H](Cc2ccc(C(N)=O)cc2)NC(=O)[C@](C)(CO)NC(=O)[C@H](Cc2c[nH]c3c(C#N)cccc23)NC(=O)[C@H](Cc2ccc(C(=O)O)cc2)NC(=O)[C@H](CC(N)=O)NC(=O)[C@H]2C[C@H](O)CN2C(=O)[C@H](Cc2c[nH]c3ccccc23)NC(=O)[C@H](CCO)NC(=O)[C@H]([C@@H](C)c2ccncc2)NC1=O [SEQ ID NO. 50] (cyclo([Ahp(2)][4Pal(3S-Me)][hSer]W[dHyp]N[Phe(4-COOH)][Trp(7-CN)][αMeS][Phe(4-CONH2)][Phe(4-CONH2)][Sar][Trp(βS-Me,7-OMe)][X1]))	> 1000 nM	0.04 nM		
